Measurements: patent publication US6211209A, “Method of inhibiting connective tissue degradation” (Warner-Lambert Company, priority 1998, dated 2001)
pIC50: −log10 of the molar value.

System: bovine nasal cartilage
Assay: Bovine nasal cartilage assay: inhibition of IL-1β-induced proteoglycan loss (chondroitin sulfate by 1,9 DMB)
Format: cell-based
Conditions: Bos taurus; concentration preventing 50% of proteoglycan loss; IL-1β-stimulated cartilage plugs
Procedure: The BNC (bovine nasal cartilage) assay provides a model for evaluating chrondroprotective compounds that block cartilage degradation through inhibition of enzyme activity or by altering the gene expression of the matrix metalloproteinases such as stromelysin.
The assay is accomplished in two phases. The cartilage plugs are first incubated with IL-1β in the presence of the compounds of the present method. The amount of proteoglycan released is then quantified by measuring chondroitin sulfate present in the media using the 1,9-Dimethylmethylene Blue Assay (1,9 DMB).
Bovine nasal septum is dissected free of surrounding tissue and wiped with 70% alcohol. A sterile cork borer is used to remove 5-mm cartilage disks of 2- to 3-mm thickness. Explants are equilibrated for 96 hours in F-12 supplemented with 10% fetal calf serum (FCS) and antibiotics at 37° C. in a humidified atmosphere of 95% air and 5% CO2. Explants are then rinsed with 1 mL F-12 Nutrient Mixture (without phenol red) in order to remove traces of FCS. Each treatment group is done in triplicate allowing: controls (500 μL F-12 medium +110 μL PBS with 0.1% BSA +7 μL DMSO); IL-1β (500 μL F-12 medium without phenol red +100 μL IL-1β (500 U) +7 μL DMSO +10 μL PBS with 0.1% BSA); and dose responses (10, 1, and 0.1 μM) (F-12 medium without phenol red +100 μL IL-1β (500 U) +7 μL compound dissolved in DMSO +10 μL PBS with 0.1% BSA), to be tested per each 24-well plate. The cartilage plugs are incubated in the presence of conditioned media (IL-1β+compound) for 48 hours. Fresh unconditioned media (no IL-1β or compound) is added and incubated for an additional 24 hours. Both the conditioned and unconditioned media are collected and saved for analysis using the 1,9 DMB assay.
The ability of a compound to inhibit proteoglycan released from the cartilage plugs is quantified by measuring chondroitin sulfate. This is done using the calorimetric 1,9 DMB assay. Depending on the amount of chondroitin sulfate present in the media a color change will occur turning the normally deep blue dye, vivid pink. This color change is measured using a Titertek Multiscan MCC 340 plate reader at 540 nm. A Cetus Pro/Pette is used to speed dilution and pipetting steps. The Cetus uses Sarstedt vials, designed for radioimmune assays, which have been inserted into Sarstedt 96-vial aluminum racks. The first row of 12 slots is left empty in order to accommodate the chondroitin sulfate standards (0.01-0.32 μg/mL shark chondroitin sulfate in 0.1 M phosphate buffer, pH 7.0, containing 0.01 M L-cysteine HCl and 0.05 M EDTA). It is necessary to dilute (1:5, 1:10) the medium before a […] is performed by adding 10 μL of collected media to 290 μL DMF (16 mg dye/1 L of 0.1 M formate buffer, pH 3.5, containing 5 mL ethanol) and reading at […]. Dilutions are performed on both the 48-hour and 72-hour media samples collected and saved earlier. Once the experiment has been completed, in order to determine the total amount of proteoglycan remaining in the plugs, they are subjected to papain digestion. Cartilage explants are digested in 20-mL glass scintillation vials by adding 50 μL papain in 1.0 mL cysteine buffer (0.01 M phosphate buffer, pH 7.0 containing 0.01 M L-cysteine HCl and 0.05 M EDTA). Digested material is diluted (1:60) and chondroitin sulfate values determined using the 1,9 DMB assay.
Determination of chondroitin sulfate in each sample is accomplished by subtracting the constant value determined from the linear regression performed on the standard curve, from the O.D. value for a particular well, and then dividing by the X coefficient calculated from the linear regression done on the standard curve. Each experimental well is split into two samples for determining chondroitin sulfate values, then the two are averaged. […]

Row | pIC50 | SMILES
1 | 6.52 | Cc1ccc(Cl)c(Nc2ccccc2-c2nsc(NC#N)n2)c1Cl [Compound 18, Cyanamide, [3-[2-[(2,6-dichloro-3-methylphenyi)amino]phenyl]-1,2,4-thiadiazol-5-yl]-]
2 | 5.85 | CNC(=O)N(O)C(C)c1cccc(Nc2ccccc2-c2n[nH]c(=S)o2)c1Cl (stereo not drawn) [Compound 16, Urea, N-[1-[2-chloro-3-[[(4,5-dihydro-5-thioxo-1,3,4-oxadiazol-2-yl)phenyl]amino]phenyl]ethyl]-N-hydroxy-N'-methyl-]
3 | 4.39 | O=c1[nH]nc(-c2ccccc2Nc2ccccc2)o1 [Compound 2, 5-(2-Phenylamino-phenyl)-3H-[1,3,4]oxadiazol-2-one]
4 | 6.10 | Cc1ccc(Cl)c(Nc2ccccc2/C=C2\SC(NC#N)=NC2=O)c1Cl [Compound 17, Cyanamide, [5-[[2-[(2,6-dichloro-3-methylphenyl)amino]phenyl]methylene]-4,5-dihydro-4-oxo-2-thiazolyl]-, (Z)-]
5 | 5.00 | Cc1ccc(Cl)c(Nc2ccccc2-c2n[nH]c(=S)[nH]2)c1Cl [Compound 5, 5-[2-(2,6-Dichloro-3-methyl-phenylamino)-phenyl]-2,4-dihydro-[1,2,4]triazole-3-thione]
6 | 5.31 | Cc1ccc(Cl)c(Nc2ccccc2-c2n[nH]c(=S)n2C)c1Cl [Compound 8, 5-[2-(2,6-Dichloro-3-methyl-phenylamino)-phenyl]-4-methyl-2,4-dihydro-[1,2,4]triazole-3-thione]
7 | 5.28 | CCOC(=O)N(O)C(C)c1cccc(Nc2ccccc2-c2n[nH]c(=S)o2)c1Cl (stereo not drawn) [Compound 13, Carbamic acid, [1-[2-chloro-3-[[2-(4,5-dihydro-5-thioxo-1,3,4-oxadiazol-2-yl)phenyl]amino]phenyl]ethyl]hydroxy-, ethyl ester]
8 | 4.63 | CC(C)(C)c1cc(Nc2ccccc2-c2n[nH]c(=S)o2)cc(C(C)(C)C)c1O [Compound 9, 5-[2-(3,5-Di-tert-butyl-4-hydroxy-phenylamino)-phenyl]-3H-[1,3,4]oxadiazole-2-thione]
9 | 5.89 | Cc1ccc(Cl)c(Nc2ccccc2C=C2SC(=S)NC2=O)c1Cl [Compound 11, 5-[2-(2,6-Dichloro-3-methyl-phenylamino)-benzylidene]-2-thioxo-thiazolidin-4-one]
10 | 4.72 | CC(O)c1cccc(Nc2ccccc2-c2n[nH]c(=S)o2)c1Cl (stereo not drawn) [Compound 10, 5-{2-[2-Chloro-3-(1-hydroxy-ethyl)-phenylamino]-phenyl}-3H-[1,3,4]oxadiazole-2-thione]
11 | 4.57 | Cc1ccc(Cl)c(Nc2ccccc2-c2n[nH]c(=S)o2)c1Cl [Compound 4, 5-[2-(2,6-Dichloro-3-methyl-phenylamino)-phenyl]-3H-[1,3,4]oxadiazole-2-thione]
12 | 5.35 | Cc1ccc(Cl)c(Nc2ccccc2C=C2SC(=O)NC2=O)c1Cl [Compound 15, 5-[2-(2,6-Dichloro-3-methyl-phenylamino)-benzylidene]-thiazolidine-2,4-dione]
13 | 5.89 | Cc1ccc(Cl)c(Nc2ccccc2C(=O)NNC(N)=S)c1Cl [Compound 6, 2-[(2,6-dichloro-3-methylphenyl)amino]-,2-(aminothioxomethyl)hydrazide]
14 | 5.19 | Cc1ccc(Cl)c(Nc2ccccc2-c2nnc(NC#N)s2)c1Cl [Compound 12, Cyanamide, [5-[2-[(2,6-dichloro-3-methylphenyl)amino]phenyl]-1,3,4-thiadiazol-2-yl]-]
15 | 4.51 | Cc1cccc(Nc2ccccc2-c2n[nH]c(=S)o2)c1C [Compound 3, 5-[2-(2,3-Dimethyl-phenylamino)-phenyl]-3H-[1,3,4]oxadiazole-2-thione]

System: 92 kDa gelatinase
Assay: Gelatin zymography of bovine nasal cartilage conditioned media: expression of 92 kDa gelatinase
Format: cell-based
Conditions: various concentrations, IL-1β-induced, FIG. 1
Procedure: (§1) To evaluate the effects of the compounds of the present invention on the expression of 72 kDa and 92 kDa gelatinases, samples obtained from the bovine nasal cartilage study (described above) were subjected to gelatin zymography.
(§2) Separating gels (8%) were made by combining 400 μL gelatin (25 mg/mL) with: 2.5 mL Tris (1.5 M); 100 μL SDS (10%); 2.6 mL acrylamide (30%); 10 μL TEMED; 4.6 mL dH2 O; 100 μL ammonium persulfate (10%). Stacking gels (4.5%) were formed by combining: 2.5 mL Tris (0.5 M); 100 μL SDS (10%); 1.5 mL acrylamide (30%); 10 μL TEMED; 5.8 mL dH2 O; 100 μL ammonium persulfate (10%).
(§3) Bovine nasal cartilage conditioned media was diluted (1:15) using sample buffer 1X (2% SDS, 15% glycerol, 0.01% bromophenol blue, 0.25M Trizma Base, pH 6.8). Thirty microliters of each of the diluted samples and molecular weight standards were subjected to electrophoresis at 4° C. under constant current conditions (20 mA of current/gel) using Tris/Glycine running buffer (0.5 M Trizma Base, pH 8.8 using glycine, 1% SDS) that was diluted 1:20 before use.
After completion of the electrophoretic procedure, the gel was first washed twice for 15 minutes in 2.5% Triton X-100. The gel was then rinsed with the gel incubation buffer (0.05 M Tris, pH 8.2, 0.005 M CaCl2, 0.5 μM ZnCl2) and incubated overnight in this buffer at 37° C. After the incubation period, the gel was stained for 30 minutes in 0.125% Coomassie and destained using 10% methanol/5% acetic acid destaining solution.

Row | SMILES | inhibiting expression of IL-1β-induced 92 kDa gelatinase
16 | Cc1ccc(Cl)c(Nc2ccccc2C=C2SC(=S)NC2=O)c1Cl [Compound 11, 5-[2-(2,6-Dichloro-3-methyl-phenylamino)-benzylidene]-2-thioxo-thiazolidin-4-one] | effective in inhibiting expression of IL-1β-induced 92 kDa gelatinase in a dose-dependent manner

Same assay, conditions: versus 72 kDa gelatinase

Row | specificity of effects (92 kDa versus 72 kDa gelatinase) | SMILES
17 | specific to 92 kDa | Cc1ccc(Cl)c(Nc2ccccc2C=C2SC(=S)NC2=O)c1Cl [Compound 11, 5-[2-(2,6-Dichloro-3-methyl-phenylamino)-benzylidene]-2-thioxo-thiazolidin-4-one]

System: 72 kDa gelatinase
Assay: Gelatin zymography of bovine nasal cartilage conditioned media: expression of 72 kDa gelatinase
Format: cell-based
Conditions: various concentrations, FIG. 1
Procedure: as §1, §2, §3
After completion of the electrophoretic procedure, the gel was first washed twice for 15 minutes in 2.5% Triton X-100. The gel was then rinsed with the gel incubation buffer (0.05 M Tris, pH 8.2, 0.005 M CaCl2, 0.5 μM ZnCl2) and incubated overnight in this buffer at 37° C. […]

Row | SMILES | effect on expression of 72 kDa gelatinase
18 | Cc1ccc(Cl)c(Nc2ccccc2C=C2SC(=S)NC2=O)c1Cl [Compound 11, 5-[2-(2,6-Dichloro-3-methyl-phenylamino)-benzylidene]-2-thioxo-thiazolidin-4-one] | no effect on expression of 72 kDa gelatinase
